These results are taken from ChEMBL document CHEMBL1201862, “PubChem BioAssay data set” (2004).

Among the test systems are 786-0; A498; A549; ACHN; DU-145; HCT-15; Hs-578T; K562; Malme-3M; NCI-H226; OVCAR-4; PC-3; RXF 393; SK-MEL-5; SNB-19; SNB-75; SW-620; U-251; UO-31; HCC 2998.
Common to all, as to assay: inhibition of tumour cell growth, NCI panel, 48 h

The structures appear in SMILES notation.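 All cell lines were grown in 96-well plates and treated with compound for 48 hours. GI50 marks 50% less growth.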 Active and inactive are the calls of the source. Cut-off read from the data, not from the text of the source: active = GI50 up to about 1.1 µM and inactive = higher.

`CC(CO)(CO)/N=C/c1cc(I)cc(I)c1O`: the GI50 was 13.6 µM (inactive) with 786-0; 26.5 µM (inactive) with A498; 54.8 µM (inactive) with A549; 25 µM (inactive) with ACHN; 11.6 µM (inactive) with DU-145; 9.33 µM with HCT-15. For the same compound, the GI50 was 23.6 µM (inactive) with Hs-578T; 27.1 µM (inactive) in the assay with K562; 13.1 µM (inactive) in the assay on Malme-3M; 16.4 µM (inactive) with NCI-H226; 8.65 µM (inactive) in the assay with OVCAR-4; 14.2 µM (inactive) in the assay on PC-3. The GI50 is 10.9 µM (inactive) with RXF 393; 13.8 µM (inactive) in the assay with SK-MEL-5; 20.3 µM (inactive) with SNB-19; 12.9 µM (inactive) with SNB-75; 22 µM (inactive) with SW-620; 12.8 µM (inactive) with U-251. Also, the GI50 in the assay on UO-31 is 12 µM (inactive).
Turning to `COC(=O)[C@@]12OC[C@]34[C@H]([C@@H](O)[C@@H]1O)[C@@]1(C)CC(=O)C(O)=C(C)[C@@H]1C[C@H]3OC(=O)[C@H](OC(=O)/C=C(\C)C(C)C)[C@@H]24` [BRUCEANTIN], the GI50 in the assay on 786-0 is 0.0292 µM (active); in the assay with A498, 0.02 µM (active); in the assay with A549, 0.02 µM (active); with ACHN, 0.0026 µM (active); with DU-145 it was 0.0142 µM (active); in the assay on HCT-15 it was 0.0214 µM. Also, the GI50 is 0.00553 µM (active) in the assay on Hs-578T; 0.02 µM (active) in the assay with K562; 0.02 µM (active) in the assay on Malme-3M; 0.02 µM (active) in the assay with NCI-H226; 0.0211 µM (active) with OVCAR-4; 0.016 µM (active) in the assay on PC-3. Besides, the GI50 in the assay with RXF 393 was 0.0201 µM (active); in the assay with SK-MEL-5, 0.02 µM (active); in the assay with SNB-19, 0.02 µM (active); in the assay on SNB-75 it was 0.02 µM (active); in the assay on SW-620, 0.02 µM (active); in the assay on U-251, 0.0242 µM (active). The GI50 with UO-31 was 0.0598 µM (active).
As for `OCC1OC(Oc2cc(O)cc(/C=C\c3ccc(O)cc3)c2)C(O)C(O)C1O` (stereo not given), the GI50 is > 100 µM (inactive) with 786-0; > 100 µM (inactive) with A498; > 100 µM (inactive) in the assay with A549; > 100 µM (inactive) with ACHN; > 100 µM (inactive) with DU-145; over 100 µM in the assay on HCT-15. In addition, the GI50 in the assay on Hs-578T, in the assay on K562, in the assay on NCI-H226, in the assay on OVCAR-4, in the assay on PC-3 and in the assay on RXF 393 was > 100 µM (inactive) each time. Moreover, the GI50 in the assay on SK-MEL-5, in the assay with SNB-19, in the assay on SNB-75, in the assay with SW-620, with U-251 and in the assay with UO-31 was > 100 µM (inactive) each time.
Take `C=C1C[C@H](O)[C@H](Br)C(C)(C)C12CCC(C)(Cl)C(Br)C2` (stereo not given in full): the GI50 is 5.48 µM (inactive) in the assay on 786-0; 0.566 µM (active) in the assay on A549; 5.05 µM (inactive) in the assay with ACHN; 4.84 µM (inactive) in the assay on DU-145; 5.52 µM (inactive) in the assay with HCC 2998; 7.45 µM with HCT-15. Moreover, the GI50 is 5.2 µM (inactive) in the assay on Hs-578T; 2.44 µM (inactive) in the assay with K562; 5.87 µM (inactive) in the assay with Malme-3M; 2.27 µM (inactive) in the assay with NCI-H226; 0.635 µM (active) in the assay on OVCAR-4; 0.153 µM (active) in the assay on PC-3. Further, the GI50 in the assay with RXF 393 is 1.95 µM (inactive); in the assay on SK-MEL-5 it was 3.04 µM (inactive); in the assay on SNB-19, 1.23 µM (inactive); with SNB-75, 1.94 µM (inactive); in the assay with SW-620 it was 4.99 µM (inactive); in the assay with U-251, 0.272 µM (active). In addition, the GI50 in the assay with UO-31 is 7.93 µM (inactive).
On to `COc1ccc(OC)c(-c2nc3n(c2/C=C2/C(=O)Nc4ccccc42)CCS3)c1`, for which the GI50 in the assay with 786-0 is > 100 µM (inactive); in the assay with A498 it was 48.5 µM (inactive); in the assay on A549 it was 63.7 µM (inactive); in the assay on ACHN, 90.6 µM (inactive); with DU-145, 64.4 µM (inactive); with HCT-15, 42.3 µM. The GI50 in the assay on Hs-578T is 44.8 µM (inactive); in the assay with K562, 37.4 µM (inactive); in the assay with Malme-3M it was 92.7 µM (inactive); in the assay with NCI-H226 it was > 100 µM (inactive); with OVCAR-4 it was 41.5 µM (inactive); in the assay with PC-3, 86.5 µM (inactive). Also, the GI50 in the assay on RXF 393 is 21.4 µM (inactive); in the assay with SK-MEL-5 it was 53.5 µM (inactive); with SNB-19, > 100 µM (inactive); in the assay on SNB-75, 22.3 µM (inactive); with SW-620 it was 40.9 µM (inactive); in the assay on U-251, 67 µM (inactive). In addition, the GI50 in the assay on UO-31 was 41.4 µM (inactive).
For the compound `CC(=O)c1nc2ccccc2n1C(C)C(=O)c1ccccc1` (stereo not given), the GI50 in the assay with 786-0 was 36.9 µM (inactive); with A498 it was > 100 µM (inactive); with A549, 27.1 µM (inactive); in the assay with DU-145 it was 64.9 µM (inactive); with HCT-15 it was 81.5 µM; in the assay on Hs-578T it was 81.1 µM (inactive). Moreover, the GI50 with K562 was 36.5 µM (inactive); in the assay on Malme-3M, 50.2 µM (inactive); in the assay with NCI-H226 it was > 100 µM (inactive); in the assay with OVCAR-4, 47.4 µM (inactive); in the assay on PC-3, 72.1 µM (inactive); in the assay on RXF 393, > 100 µM (inactive). Besides, the GI50 in the assay on SNB-19 was 77.6 µM (inactive); in the assay on SNB-75, > 100 µM (inactive); in the assay with SW-620 it was 43.7 µM (inactive); in the assay on U-251, 57.3 µM (inactive); in the assay on UO-31, 50.7 µM (inactive).
Regarding `Fc1ccc(NCn2nc(COc3ccccc3Cl)n(/N=C/c3ccc(-c4ccc(Cl)cc4Cl)o3)c2=S)cc1Cl`, the GI50 was 27 µM (inactive) in the assay on 786-0; 16.1 µM (inactive) in the assay on A498; 29.5 µM (inactive) in the assay on ACHN; 47.6 µM (inactive) in the assay on DU-145; 26.7 µM in the assay on HCT-15; 82.6 µM (inactive) with Hs-578T. Besides, the GI50 with K562 is 15.4 µM (inactive); in the assay with NCI-H226, 83.8 µM (inactive); in the assay with OVCAR-4, 53.2 µM (inactive); with PC-3 it was 38.5 µM (inactive); in the assay on RXF 393 it was 21.5 µM (inactive); in the assay on SK-MEL-5 it was 7.62 µM (inactive). Further, the GI50 is 36.1 µM (inactive) in the assay with SW-620, 25.8 µM (inactive) in the assay on U-251 and 32.9 µM (inactive) in the assay on UO-31.
`CC(C)=CC[C@]12CCN[C@H]1N(S(=O)(=O)c1ccccc1)c1ccccc12`: the GI50 with 786-0 was 15.6 µM (inactive); in the assay with A549, 19.9 µM (inactive); with ACHN it was 21.1 µM (inactive); in the assay with DU-145, > 100 µM (inactive); with HCC 2998, 16.7 µM (inactive); in the assay on HCT-15, 15.6 µM. Further, the GI50 in the assay with Hs-578T was 20.5 µM (inactive); with K562, 16.7 µM (inactive); in the assay on Malme-3M, 16.3 µM (inactive); with NCI-H226, 14.9 µM (inactive); with OVCAR-4, 14.3 µM (inactive); with PC-3, 13.5 µM (inactive). For the same compound, the GI50 is 13.5 µM (inactive) in the assay with RXF 393; 14.9 µM (inactive) in the assay on SK-MEL-5; 21.5 µM (inactive) in the assay on SNB-19; 17.1 µM (inactive) in the assay on SNB-75; 18.4 µM (inactive) in the assay with SW-620; 16 µM (inactive) with U-251. In addition, in the assay on UO-31, the GI50 was 13.8 µM (inactive).
In the case of `CCOC(=O)c1nc2ccccc2nc1Oc1ccc(C(=O)OC)cc1`, the GI50 was > 100 µM (inactive) with 786-0; > 100 µM (inactive) in the assay on A498; > 100 µM (inactive) in the assay with A549; > 100 µM (inactive) in the assay on ACHN; > 100 µM (inactive) with DU-145; over 100 µM in the assay with HCT-15. Further, the GI50 in the assay on Hs-578T, in the assay with K562, in the assay on Malme-3M, in the assay on NCI-H226, with OVCAR-4 and in the assay with PC-3 was > 100 µM (inactive) throughout. Besides, the GI50 in the assay with RXF 393 is > 100 µM (inactive); with SK-MEL-5 it was > 100 µM (inactive); in the assay on SNB-19, > 100 µM (inactive); with SNB-75, 29 µM (inactive); in the assay with SW-620, > 100 µM (inactive); with U-251, > 100 µM (inactive). The GI50 in the assay on UO-31 is > 100 µM (inactive).
Turning to `CN(C)c1nncc2[nH]cnc12`, the GI50 in the assay on 786-0 is > 100 µM (inactive); in the assay with A498, > 100 µM (inactive); in the assay with A549, > 100 µM (inactive); in the assay on ACHN, > 100 µM (inactive); with DU-145, > 100 µM (inactive); in the assay on HCT-15 it was over 100 µM. Further, the GI50 with Hs-578T, with K562, in the assay on NCI-H226, in the assay on PC-3, in the assay with RXF 393 and in the assay on SK-MEL-5 was > 100 µM (inactive) each time. In addition, the GI50 with SNB-19, with SNB-75, with SW-620, with U-251 and in the assay on UO-31 was > 100 µM (inactive) in each case.
Regarding `CCOc1c(OC)cc(C2c3cc4c(c(OCC)c3CC3COC(=O)C32)OCO4)cc1OC` (stereo not given), the GI50 was 2.62 µM (inactive) with 786-0; 10.9 µM (inactive) in the assay on A498; 2.86 µM (inactive) with A549; 1.79 µM (inactive) in the assay with ACHN; 2.69 µM (inactive) in the assay on DU-145; 0.608 µM in the assay on HCT-15. For the same compound, the GI50 in the assay with Hs-578T was 1.99 µM (inactive); in the assay with K562, 1.83 µM (inactive); with Malme-3M it was 11.1 µM (inactive); in the assay on NCI-H226 it was 6.84 µM (inactive); in the assay with OVCAR-4, 8.28 µM (inactive); in the assay with PC-3, 2.37 µM (inactive). Besides, the GI50 is 4.6 µM (inactive) with RXF 393; 1.63 µM (inactive) in the assay with SK-MEL-5; 3.65 µM (inactive) in the assay on SNB-19; 5.11 µM (inactive) in the assay with SNB-75; 1.24 µM (inactive) in the assay on SW-620; 1.63 µM (inactive) in the assay on U-251. In the assay with UO-31, the GI50 was 3.87 µM (inactive).
